Test results: PubChem BioAssay (NCI)
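Dose response: 5 concentrations. Exposure: 48 h. Format: 96-well plates. Endpoint: linear interpolation; highest concentration if not reached. At the GI50, growth is halved. TGI: total growth inhibition.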

How the values were obtained:
Assay in all cases: inhibition of tumour cell growth, NCI panel, 48 h
NCI-H23 lung = test system: NCI-H23 lung
SF-268 CNS = test system: SF-268 CNS
SW-620 colon = test system: SW-620 colon
MDA-MB-231 breast = test system: MDA-MB-231 breast
SN12C renal = test system: SN12C renal
A498 renal = test system: A498 renal
NCI/ADR-RES ovarian = test system: NCI/ADR-RES ovarian
A549 NSCLC = test system: A549 NSCLC
OVCAR-4 ovarian = test system: OVCAR-4 ovarian
EKVX NSCLC = test system: EKVX NSCLC
M14 melanoma = test system: M14 melanoma
CAKI-1 renal = test system: CAKI-1 renal
SNB-75 CNS = test system: SNB-75 CNS
KM12 colon = test system: KM12 colon
SK-OV-3 ovarian = test system: SK-OV-3 ovarian
NCI-H226 lung = test system: NCI-H226 lung
T-47D breast = test system: T-47D breast
BT-549 breast = test system: BT-549 breast
HOP-92 NSCLC = test system: HOP-92 NSCLC
MCF7 breast = test system: MCF7 breast
OVCAR-3 ovarian = test system: OVCAR-3 ovarian
HCT-15 colon = test system: HCT-15 colon
LOX IMVI melanoma = test system: LOX IMVI melanoma
NCI-H522 lung = test system: NCI-H522 lung
NCI-H460 lung = test system: NCI-H460 lung
IGROV1 ovarian = test system: IGROV1 ovarian
OVCAR-5 ovarian = test system: OVCAR-5 ovarian
SF-295 CNS = test system: SF-295 CNS
MDA-MB-435 = test system: MDA-MB-435
RPMI-8226 leukemia = test system: RPMI-8226 leukemia
HT29 colon = test system: HT29 colon
UACC-257 melanoma = test system: UACC-257 melanoma
OVCAR-8 ovarian = test system: OVCAR-8 ovarian
MALME-3M melanoma = test system: MALME-3M melanoma
HCT-116 colon = test system: HCT-116 colon
U251 CNS = test system: U251 CNS
SK-MEL-28 melanoma = test system: SK-MEL-28 melanoma
ACHN renal = test system: ACHN renal
SNB-19 CNS = test system: SNB-19 CNS
DU-145 prostate = test system: DU-145 prostate
HCC-2998 colon = test system: HCC-2998 colon
HOP-62 NSCLC = test system: HOP-62 NSCLC
TK-10 renal = test system: TK-10 renal
PC-3 prostate = test system: PC-3 prostate
HS 578T breast = test system: HS 578T breast
COLO 205 colon = test system: COLO 205 colon
SF-539 CNS = test system: SF-539 CNS
SK-MEL-2 melanoma = test system: SK-MEL-2 melanoma
UACC-62 melanoma = test system: UACC-62 melanoma
786-0 renal = test system: 786-0 renal
K-562 leukemia = test system: K-562 leukemia
CCRF-CEM leukemia = test system: CCRF-CEM leukemia
SK-MEL-5 melanoma = test system: SK-MEL-5 melanoma
RXF 393 renal = test system: RXF 393 renal
UO-31 renal = test system: UO-31 renal
MOLT-4 leukemia = test system: MOLT-4 leukemia
SR leukemia = test system: SR leukemia

## O=[N+]([O-])c1ccc(N/N=C\c2ccc(O)cc2O)nc1
NCI-H23 lung
  GI50: 3.39 µM
  TGI: > 100 µM
SF-268 CNS
  GI50: 1.21 µM
  TGI: > 100 µM
SW-620 colon
  GI50: 2.69 µM
  TGI: > 100 µM
MDA-MB-231 breast
  GI50: 2.1 µM
  TGI: > 100 µM
SN12C renal
  GI50: 3.12 µM
  TGI: > 100 µM
A498 renal
  GI50: > 100 µM
  TGI: > 100 µM
NCI/ADR-RES ovarian
  GI50: 0.498 µM
  TGI: 31.2 µM
A549 NSCLC
  GI50: 2.47 µM
  TGI: > 100 µM
OVCAR-4 ovarian
  GI50: 1.11 µM
  TGI: > 100 µM
EKVX NSCLC
  GI50: 3.49 µM
  TGI: > 100 µM
M14 melanoma
  GI50: 1.44 µM
  TGI: 4.85 µM
CAKI-1 renal
  GI50: 1.68 µM
  TGI: 9.8 µM
SNB-75 CNS
  GI50: 9.77 µM
  TGI: > 100 µM
KM12 colon
  GI50: 1.91 µM
  TGI: > 100 µM
SK-OV-3 ovarian
  GI50: 2.18 µM
  TGI: > 100 µM
NCI-H226 lung
  GI50: 3.39 µM
  TGI: > 100 µM
T-47D breast
  GI50: 4.04 µM
  TGI: > 100 µM
BT-549 breast
  GI50: 6.06 µM
  TGI: > 100 µM
HOP-92 NSCLC
  GI50: 5.54 µM
  TGI: > 100 µM
MCF7 breast
  GI50: 3.4 µM
  TGI: > 100 µM
OVCAR-3 ovarian
  GI50: 0.398 µM
  TGI: 42.1 µM
HCT-15 colon
  GI50: 0.828 µM
  TGI: > 100 µM
LOX IMVI melanoma
  GI50: 0.754 µM
  TGI: > 100 µM
NCI-H522 lung
  GI50: 10.8 µM
  TGI: > 100 µM
NCI-H460 lung
  GI50: 0.797 µM
  TGI: > 100 µM
IGROV1 ovarian
  GI50: 3.4 µM
  TGI: > 100 µM
OVCAR-5 ovarian
  GI50: 5.68 µM
  TGI: > 100 µM
SF-295 CNS
  GI50: 2.96 µM
  TGI: > 100 µM
MDA-MB-435
  GI50: 3.14 µM
  TGI: > 100 µM
RPMI-8226 leukemia
  GI50: 4.21 µM
  TGI: > 100 µM
HT29 colon
  GI50: 5.32 µM
  TGI: > 100 µM
UACC-257 melanoma
  GI50: 3.37 µM
  TGI: > 100 µM
OVCAR-8 ovarian
  GI50: 1.52 µM
  TGI: > 100 µM
MALME-3M melanoma
  GI50: 2.61 µM
  TGI: > 100 µM
HCT-116 colon
  GI50: 2.11 µM
  TGI: > 100 µM
U251 CNS
  GI50: 2.08 µM
  TGI: > 100 µM
SK-MEL-28 melanoma
  GI50: 5.03 µM
  TGI: > 100 µM
ACHN renal
  GI50: 0.599 µM
  TGI: 21.3 µM
SNB-19 CNS
  GI50: 3.24 µM
  TGI: > 100 µM
DU-145 prostate
  GI50: 1.77 µM
  TGI: > 100 µM
HCC-2998 colon
  GI50: 3.94 µM
  TGI: > 100 µM
HOP-62 NSCLC
  GI50: 4.34 µM
  TGI: 45 µM
TK-10 renal
  GI50: 5.09 µM
  TGI: > 100 µM
PC-3 prostate
  GI50: 5.73 µM
  TGI: > 100 µM
HS 578T breast
  GI50: 38.3 µM
  TGI: > 100 µM
COLO 205 colon
  GI50: 5.56 µM
  TGI: > 100 µM
SF-539 CNS
  GI50: 3.07 µM
  TGI: > 100 µM
SK-MEL-2 melanoma
  GI50: 5.21 µM
  TGI: > 100 µM

## COc1ccc(-c2cc(-c3ccncc3)nc(N)c2-c2ccc(F)cc2)cc1
UACC-62 melanoma
  TGI: > 100 µM
NCI-H23 lung
  TGI: > 100 µM
SF-268 CNS
  TGI: > 100 µM
SW-620 colon
  TGI: > 100 µM
786-0 renal
  TGI: > 100 µM
MDA-MB-231 breast
  TGI: > 100 µM
A498 renal
  TGI: > 100 µM
K-562 leukemia
  TGI: > 100 µM
NCI/ADR-RES ovarian
  TGI: > 100 µM
A549 NSCLC
  TGI: > 100 µM
OVCAR-4 ovarian
  TGI: > 100 µM
EKVX NSCLC
  TGI: > 100 µM
M14 melanoma
  TGI: > 100 µM
CCRF-CEM leukemia
  TGI: > 100 µM
CAKI-1 renal
  TGI: > 100 µM
SK-MEL-5 melanoma
  TGI: > 100 µM
SNB-75 CNS
  TGI: > 100 µM
KM12 colon
  TGI: > 100 µM
SK-OV-3 ovarian
  TGI: > 100 µM
NCI-H226 lung
  TGI: > 100 µM
T-47D breast
  TGI: > 100 µM
BT-549 breast
  TGI: > 100 µM
HOP-92 NSCLC
  TGI: > 100 µM
MCF7 breast
  TGI: > 100 µM
OVCAR-3 ovarian
  TGI: > 100 µM
HCT-15 colon
  TGI: > 100 µM
LOX IMVI melanoma
  TGI: > 100 µM
NCI-H522 lung
  TGI: 27.1 µM
NCI-H460 lung
  TGI: 57.6 µM
IGROV1 ovarian
  TGI: > 100 µM
RXF 393 renal
  TGI: 68.6 µM
OVCAR-5 ovarian
  TGI: > 100 µM
SF-295 CNS
  TGI: > 100 µM
UO-31 renal
  TGI: > 100 µM
MDA-MB-435
  TGI: > 100 µM
RPMI-8226 leukemia
  TGI: > 100 µM
HT29 colon
  TGI: > 100 µM
UACC-257 melanoma
  TGI: > 100 µM
OVCAR-8 ovarian
  TGI: > 100 µM
MALME-3M melanoma
  TGI: > 100 µM
HCT-116 colon
  TGI: 51.7 µM
U251 CNS
  TGI: > 100 µM
ACHN renal
  TGI: 75.4 µM
SNB-19 CNS
  TGI: > 100 µM
HOP-62 NSCLC
  TGI: > 100 µM
TK-10 renal
  TGI: > 100 µM
PC-3 prostate
  TGI: > 100 µM
HS 578T breast
  TGI: > 100 µM
MOLT-4 leukemia
  TGI: > 100 µM
SR leukemia
  TGI: 38.7 µM
COLO 205 colon
  TGI: 97.3 µM
SF-539 CNS
  TGI: 46.8 µM
SK-MEL-2 melanoma
  TGI: > 100 µM
